Common to all, as to assay type: cell-based
The subject of experiment [1] is MHH-CALL-4 cells. In words: Cytotoxicity assay (resazurin, 72 hours). Also on record: AUC: unit not given beside the values. The settings on record: for EC50: MHHCALL4, resazurin; for AUC: area under the dose-response curve. On the procedure: Cytotoxicity assay: MHH-CALL-4 cells were maintained in RPMI1640 medium (Invitrogen) supplemented with 10% FBS (Hyclone), Penicillin/Streptomycin (100 units/mL) and Glutamine (100 μM). 2×10^5 cells were seeded in 100 μl medium/well in 96 well assay plates (Corning 3603). Assays were performed in triplicate; compounds to be screened were added to assay plates from DMSO stock solutions by pin transfer using 50SS pins (V&P Scientific). The assay plates incubated at 37° C. in 5% CO2 for 72 hours. Cells were then incubated for four hours with resazurin (Sigma) solution and read on a Synergy HT plate reader (Biotek, Winooski, VT). High-throughput assay data was analyzed using our in-house Robust Interpretation of Screening Experiments (RISE) application written in Pipeline Pilot (Biovia, v. 17.2.0) and the R program (R Core Team, 2013). All the AUC (area under the dose-response curve) per compound calculated from its dose response curve by RISE protocol. Selected data were plotted and analyzed by GraphPad Prism software v7 using non-linear regression curve fitting.
A general note: Alamar Blue is a resazurin reagent that responds to reducing activity.

Experiment [2] relates to JAK2. Nature of the experiment: Western blot assay, JAK2 protein degradation. Conditions: MHH-CALL-4 cells, vehicle control = 100%. On the procedure:
(§1) Western blot assay: MHH-CALL-4 Cells were washed twice with ice-cold PBS and lysed in RIPA lysis buffer (Sigma) freshly supplemented with Halt™ Protease Inhibitor Cocktail (ThermoFisher) for 15 minutes on ice. The cell pellet was removed by centrifugation at 13,000 g at 4° C. for 15 minutes. Protein concentration was measured by BCA assay (Thermo Fisher Scientific). Proteins were denatured in NuPAGE LDS 4× sample buffer supplemented with reducing agents (Invitrogen). Typically, 10-20 μg of total protein was loaded per lane on a 4%-12% NUPAGE Bis-Tris gradient gel (Invitrogen) and analyzed by standard immunoblotting and imaged using Li—COR Odyssey CLx (LI-COR Biotechnology, Lincoln, NE). To access the protein degradation, the signal of target protein was normalized by the signal of ACBT and the signal of vehicle control was set as 100%. Primary antibodies used were: JAK1 (Cell Signaling #3332S), JAK2 (#3230S), JAK3 (#8827S), TYK2 (#9312S), GSPT1 (#14980S), CRBN (#71810S), IKZF1 (Santa Cruz Biotechnology, SC-398265) and ACBT (Santa Cruz Biotechnology, SC-47778).
(In general: A western blot detects proteins with antibodies after separation by electrophoresis.)

For experiment [3], the target named is T1, GSPT1 (Homo sapiens, UniProt P15170).
T1 construct: endogenous in cells; host or cells: MHH-CALL-4
In words: Western blot assay, GSPT1 neosubstrate degradation. Conditions: MHH-CALL-4 cells, vehicle control = 100%; for remaining activity at 0.1 µM: MHHCALL4, 100 nM, 24 h. On the procedure: as §1

Structures are written as SMILES.

T1 sequence (P15170 whole entry): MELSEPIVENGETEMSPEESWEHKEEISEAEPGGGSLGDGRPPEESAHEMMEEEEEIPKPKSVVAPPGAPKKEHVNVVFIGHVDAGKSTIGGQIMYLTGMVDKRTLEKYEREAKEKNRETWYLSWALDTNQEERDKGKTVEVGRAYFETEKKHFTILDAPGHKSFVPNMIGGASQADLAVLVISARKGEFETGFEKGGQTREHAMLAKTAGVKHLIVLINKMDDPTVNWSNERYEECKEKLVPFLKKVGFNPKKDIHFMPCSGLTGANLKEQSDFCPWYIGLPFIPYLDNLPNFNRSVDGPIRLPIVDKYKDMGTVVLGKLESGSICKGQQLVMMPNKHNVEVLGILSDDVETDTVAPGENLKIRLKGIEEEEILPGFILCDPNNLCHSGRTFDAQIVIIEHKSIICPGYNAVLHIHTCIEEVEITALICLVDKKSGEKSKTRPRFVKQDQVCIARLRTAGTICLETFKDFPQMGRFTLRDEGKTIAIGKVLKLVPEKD

For the compound `CCS(=O)(=O)N1CC(CC#N)(n2cc(-c3nc(Nc4ccc(C(=O)NCCOCCOc5cccc(C6CCC(=O)NC6=O)c5)cc4)nc4[nH]ccc34)cn2)C1` (stereo not shown) [Compound 9], in experiment [1], the EC50 (in general, the concentration that produces a half-maximal response) amounted to 873 nM and the AUC was 132.

Turning to `CCS(=O)(=O)N1CC(CC#N)(n2cc(-c3nc(Nc4ccc(C(=O)N5CCN(c6ccc(C7CCC(=O)NC7=O)cc6)CC5)cc4)nc4[nH]ccc34)cn2)C1` (stereo not shown) [Compound 2], the “Target Protein Degradation (% remaining at 100 nM, 24 h) JAK2” value in experiment [2] was “None”. In addition, in experiment [1], the EC50 amounted to 1 nM and the AUC is 167. Further, the “Neosubstrate Degradation (% remaining at 100 nM, 24 h) GSPT1” value in experiment [3] is reported as “None”.

Turning to `CCS(=O)(=O)N1CC(CC#N)(n2cc(-c3nc(Nc4ccc(C(=O)NCCCN5CCC6(CCN(c7ccc(C8CCC(=O)NC8=O)cc7)CC6)C5)cc4)nc4[nH]ccc34)cn2)C1` (stereo not shown) [Compound 56, 4-((4-(1-(3-(cyanomethyl)-1-(ethylsulfonyl)azetidin-3-yl)-1H-pyrazol-4-yl)-7H-pyrrolo[2,3-d]pyrimidin-2-yl)amino)-N-(3-(8-(4-(2,6-dioxopiperidin-3-yl)phenyl)-2,8-diazaspiro[4.5]decan-2-yl)propyl)benzamide], the “Target Protein Degradation (% remaining at 100 nM, 24 h) JAK2” value in experiment [2] worked out at 58 % remaining. In experiment [1], the EC50 turned out to be 2650 nM and the AUC stood at 172. For the same compound, in experiment [3], the remaining activity (usually the signal under treatment as a percentage of the control signal) at 0.1 µM was determined as 102%.

As for `CCS(=O)(=O)C1CC(CC#N)(n2cc(-c3nc(Nc4ccc(C(=O)N5CCN(c6ccc7c(c6)C(=O)N(C6CCC(=O)NC6=O)C7=O)CC5)cc4)nc4[nH]ccc34)cn2)C1` (stereo not shown) [Compound 21], the “Target Protein Degradation (% remaining at 100 nM, 24 h) JAK2” value in experiment [2] is on record as 53 % remaining. For the same compound, in experiment [1], the EC50 amounted to 13.9 nM and the AUC amounted to 118.

Consider `CCCn1cc(-c2nc(Nc3ccc(C(=O)N4CCN(c5cccc6c5C(=O)N(C5CCC(=O)NC5=O)C6=O)CC4)cc3)nc3[nH]ccc23)cn1` (stereo not shown) [Compound 26], for which the “Target Protein Degradation (% remaining at 100 nM, 24 h) JAK2” value in experiment [2] is given as “None”. For the same compound, in experiment [1], the EC50 is 297 nM and the AUC was 217. Besides, in experiment [3], the “Neosubstrate Degradation (% remaining at 100 nM, 24 h) GSPT1” value is given as “Medium”.

Consider `CCS(=O)(=O)N1CC(CC#N)(n2cc(-c3nc(Nc4ccc(C(=O)NCCCCCNC(=O)COc5ccc(C6CCC(=O)NC6=O)cc5)cc4)nc4[nH]ccc34)cn2)C1` (stereo not shown) [Compound 16], for which, in experiment [1], the EC50 is above 5700 nM and the AUC is 136.

Turning to `CCS(=O)(=O)N1CC(CC#N)(n2cc(-c3nc(Nc4ccc(C(=O)N5CC6(C5)CN(c5ccc(C7CCC(=O)NC7=O)cc5)C6)cc4)nc4[nH]ccc34)cn2)C1` (stereo not shown) [Compound 53, 2-(3-(4-(2-((4-(6-(4-(2,6-dioxopiperidin-3-yl)phenyl)-2,6-diazaspiro[3.3]heptane-2-carbonyl)phenyl)amino)-7H-pyrrolo[2,3-d]pyrimidin-4-yl)-1H-pyrazol-1-yl)-1-(ethylsulfonyl)azetidin-3-yl)acetonitrile], the “Target Protein Degradation (% remaining at 100 nM, 24 h) JAK2” value in experiment [2] is given as 36 % remaining. In experiment [1], the EC50 stood at 1.7 nM and the AUC came to 142. Moreover, in experiment [3], the remaining activity at 0.1 µM is 102%.

Regarding `CCS(=O)(=O)N1CC(CC#N)(n2cc(-c3nc(Nc4ccc(C(=O)NCCCN5CC6CCC5CN6c5ccc(C6CCC(=O)NC6=O)cc5)cc4)nc4[nH]ccc34)cn2)C1` (stereo not shown) [Compound 54, 4-((4-(1-(3-(cyanomethyl)-1-(ethylsulfonyl)azetidin-3-yl)-1H-pyrazol-4-yl)-7H-pyrrolo[2,3-d]pyrimidin-2-yl)amino)-N-(3-(5-(4-(2,6-dioxopiperidin-3-yl)phenyl)-2,5-diazabicyclo[2.2.2]octan-2-yl)propyl)benzamide], the “Target Protein Degradation (% remaining at 100 nM, 24 h) JAK2” value in experiment [2] came out at 62 % remaining. Besides, in experiment [1], the EC50 is 6.3 nM and the AUC turned out to be 67. Further, the remaining activity at 0.1 µM in experiment [3] was 125%.

For `CCS(=O)(=O)N1CC(CC#N)(n2cc(-c3nc(Nc4ccc(C(=O)NCCCN5CC6CC5CN6c5ccc(C6CCC(=O)NC6=O)cc5)cc4)nc4[nH]ccc34)cn2)C1` (stereo not shown) [Compound 48, 4-((4-(1-(3-(cyanomethyl)-1-(ethylsulfonyl)azetidin-3-yl)-1H-pyrazol-4-yl)-7H-pyrrolo[2,3-d]pyrimidin-2-yl)amino)-N-(3-(5-(4-(2,6-dioxopiperidin-3-yl)phenyl)-2,5-diazabicyclo[2.2.1]heptan-2-yl)propyl)benzamide], the “Target Protein Degradation (% remaining at 100 nM, 24 h) JAK2” value in experiment [2] was 76 % remaining. In experiment [1], the EC50 was 27.3 nM and the AUC stood at 80.

In the case of `CCCn1cc(-c2nc(Nc3ccc(C(=O)NCCN4CCN(c5cccc6c5C(=O)N(C5CCC(=O)NC5=O)C6=O)CC4)cc3)nc3[nH]ccc23)cn1` (stereo not shown) [Compound 24], the “Target Protein Degradation (% remaining at 100 nM, 24 h) JAK2” value in experiment [2] stood at 93 % remaining. For the same compound, in experiment [1], the EC50 turned out to be 83.6 nM and the AUC turned out to be 208. In experiment [3], the remaining activity at 0.1 µM is 0%.

Turning to `CCS(=O)(=O)N1CC(CC#N)(n2cc(-c3nc(Nc4ccc(C(=O)NCCCCNC(=O)COc5ccc(C6CCC(=O)NC6=O)cc5)cc4)nc4[nH]ccc34)cn2)C1` (stereo not shown) [Compound 15], the “Target Protein Degradation (% remaining at 100 nM, 24 h) JAK2” value in experiment [2] came out at 29 % remaining. Moreover, in experiment [1], the EC50 is above 5500 nM and the AUC was 156. The remaining activity at 0.1 µM in experiment [3] amounted to 78%.

In the case of `CCS(=O)(=O)N1CC(CC#N)(n2cc(-c3nc(Nc4ccc(C(=O)NCCCN5CCC6(CC5)CCN(c5ccc(C7CCC(=O)NC7=O)cc5)CC6)cc4)nc4[nH]ccc34)cn2)C1` (stereo not shown) [Compound 51], the “Target Protein Degradation (% remaining at 100 nM, 24 h) JAK2” value in experiment [2] was determined as 67 % remaining. In addition, in experiment [1], the EC50 turned out to be 226 nM and the AUC came out at 105.

Consider `CCS(=O)(=O)N1CC(CC#N)(n2cc(-c3nc(Nc4ccc(C(=O)NCCOCCOCCOc5ccc(C6CCC(=O)NC6=O)cc5)cc4)nc4[nH]ccc34)cn2)C1` (stereo not shown) [Compound 12], for which, in experiment [1], the EC50 is above 5000 nM and the AUC is 116.

As to `CCS(=O)(=O)N1CC(CC#N)(n2cc(-c3nc(Nc4ccc(C(=O)NCCCCNc5ccc(C6CCC(=O)NC6=O)cc5)cc4)nc4[nH]ccc34)cn2)C1` (stereo not shown) [Compound 13], in experiment [1], the EC50 was above 5000 nM and the AUC was determined as 93.

As for `CCCn1cc(-c2nc(Nc3ccc(C(=O)NCCCN4CCN(c5cccc6c5C(=O)C(C5CCC(=O)NC5=O)C6=O)CC4)cc3)nc3[nH]ccc23)cn1` (stereo not shown) [Compound 25], the “Target Protein Degradation (% remaining at 100 nM, 24 h) JAK2” value in experiment [2] is “None”. In experiment [1], the EC50 turned out to be 169 nM and the AUC was found to be 250. Further, the “Neosubstrate Degradation (% remaining at 100 nM, 24 h) GSPT1” value in experiment [3] is “Medium”.

These data come from patent publication US20240124465A1, “MOLECULES AND METHODS RELATED TO TREATMENT OF DISORDERS ASSOCIATED WITH JAK-2 SIGNALING DYSFUNCTION” (ST. JUDE CHILDREN'S RESEARCH HOSPITAL, priority 2020, published 2024).
